From the supplement of paper PMC11451515

Tested on: P12-Ichikawa
Experiment: cell viability relative to DMSO control; higher = less cytotoxic
Details: 48 h
Procedure, shortened: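 Viability values are per-plate percentages of DMSO wells, with background from cell-free wells. Library compounds in DMSO were pin-dosed, in an 11-point threefold series from 47 μM to 0.79 nM, onto NOMO1 or SEM (500 cells/well) or P12-Ichikawa (1000 cells/well) leukemia cells in 1536-well plates (5 μl). Those cells had been adapted for at least four passages in each medium, and CellTiter-Glo One luminescence was read after 48 h at 37°C.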

[1] = HPLM + 10% dialyzed FBS, 0.000781 µM
[2] = HPLM + 10% dialyzed FBS, 0.00234 µM
[3] = HPLM + 10% dialyzed FBS, 0.00702 µM
[4] = HPLM + 10% dialyzed FBS, 0.0211 µM
[5] = HPLM + 10% dialyzed FBS, 0.0632 µM
[6] = HPLM + 10% dialyzed FBS, 0.19 µM
[7] = HPLM + 10% dialyzed FBS, 0.569 µM
[8] = HPLM + 10% dialyzed FBS, 1.71 µM
[9] = HPLM + 10% dialyzed FBS, 5.12 µM
[10] = HPLM + 10% dialyzed FBS, 15.4 µM
[11] = HPLM + 10% dialyzed FBS, 46.1 µM
[12] = RPMI 5 mM glucose + 10% FBS, 0.000781 µM
[13] = RPMI 5 mM glucose + 10% FBS, 0.00234 µM
[14] = RPMI 5 mM glucose + 10% FBS, 0.00702 µM
[15] = RPMI 5 mM glucose + 10% FBS, 0.0211 µM
[16] = RPMI 5 mM glucose + 10% FBS, 0.0632 µM
[17] = RPMI 5 mM glucose + 10% FBS, 0.19 µM
[18] = RPMI 5 mM glucose + 10% FBS, 0.569 µM
[19] = RPMI 5 mM glucose + 10% FBS, 1.71 µM
[20] = RPMI 5 mM glucose + 10% FBS, 5.12 µM
[21] = RPMI 5 mM glucose + 10% FBS, 15.4 µM
[22] = RPMI 5 mM glucose + 10% FBS, 46.1 µM
[23] = RPMI 5 mM glucose + 10% dialyzed FBS, 0.000781 µM
[24] = RPMI 5 mM glucose + 10% dialyzed FBS, 0.00234 µM
[25] = RPMI 5 mM glucose + 10% dialyzed FBS, 0.00702 µM
[26] = RPMI 5 mM glucose + 10% dialyzed FBS, 0.0211 µM
[27] = RPMI 5 mM glucose + 10% dialyzed FBS, 0.0632 µM
[28] = RPMI 5 mM glucose + 10% dialyzed FBS, 0.19 µM
[29] = RPMI 5 mM glucose + 10% dialyzed FBS, 0.569 µM
[30] = RPMI 5 mM glucose + 10% dialyzed FBS, 1.71 µM
[31] = RPMI 5 mM glucose + 10% dialyzed FBS, 5.12 µM
[32] = RPMI 5 mM glucose + 10% dialyzed FBS, 15.4 µM
[33] = RPMI 5 mM glucose + 10% dialyzed FBS, 46.1 µM

| SMILES | cell viability [1] [%] | cell viability [2] [%] | cell viability [3] [%] | cell viability [4] [%] | cell viability [5] [%] | cell viability [6] [%] | cell viability [7] [%] | cell viability [8] [%] | cell viability [9] [%] | cell viability [10] [%] | cell viability [11] [%] | cell viability [12] [%] | cell viability [13] [%] | cell viability [14] [%] | cell viability [15] [%] | cell viability [16] [%] | cell viability [17] [%] | cell viability [18] [%] | cell viability [19] [%] | cell viability [20] [%] | cell viability [21] [%] | cell viability [22] [%] | cell viability [23] [%] | cell viability [24] [%] | cell viability [25] [%] | cell viability [26] [%] | cell viability [27] [%] | cell viability [28] [%] | cell viability [29] [%] | cell viability [30] [%] | cell viability [31] [%] | cell viability [32] [%] | cell viability [33] [%] |
| --- | --- | --- | --- | --- | --- | --- | --- | --- | --- | --- | --- | --- | --- | --- | --- | --- | --- | --- | --- | --- | --- | --- | --- | --- | --- | --- | --- | --- | --- | --- | --- | --- | --- |
| Cn1cnc2c1c(=O)[nH]c(=O)n2C | 105 | 107 | 100 | 104 | 110 | 105 | 112 | 108 | 97.1 | 98 | 9.4 | 104 | 104 | 93.9 | 97.6 | 103 | 103 | 100 | 98.5 | 99 | 82.2 | 34.1 | 102 | 102 | 103 | 102 | 100 | 99.8 | 103 | 97.9 | 87.2 | 80.9 | 25.7 |
| Cc1cnc(-c2cc(N3CCN(C(=O)CC[S+](C)(=O)[O-])CC3)ncc2Cl)c(C)c1 | 117 | 116 | 114 | 130 | 124 | 131 | 126 | 122 | 130 | 128 | 128 | – | – | – | – | – | – | – | – | – | – | – | – | – | – | – | – | – | – | – | – | – | – |
| O=C(O)c1ccc2c(c1)nc(Nc1cccc(Cl)c1)c1ccncc12 | 106 | 112 | 104 | 104 | 108 | 109 | 104 | 104 | 94.8 | 71.8 | 83.4 | 112 | 111 | 108 | 98.4 | 108 | 108 | 105 | 100 | 84.4 | 58.9 | 70.2 | 99.4 | 94.2 | 93.8 | 97.4 | 100 | 95.9 | 94.5 | 101 | 77.8 | 51.4 | 73 |
| O=C(O[C@H]1C[C@H]2CC[C@@H](C1)[N+]21CCCC1)C(O)(c1ccccc1)c1ccccc1.[Cl-] | 104 | 104 | 112 | 106 | 117 | 105 | 110 | 116 | 107 | 116 | 110 | 107 | 104 | 113 | 116 | 120 | 127 | 127 | 106 | 113 | 115 | 115 | 99.5 | 99.9 | 105 | 106 | 117 | 110 | 104 | 113 | 107 | 103 | 103 |
| C[C@]12CCC(=O)C=C1CC[C@@H]1[C@@H]2CC[C@@]2(C)[C@H]1CC[C@]2(C)O | 105 | 110 | 105 | 91.5 | 104 | 107 | 109 | 104 | 102 | 89.6 | 86.4 | 94.7 | 93.3 | 105 | 79.6 | 104 | 102 | 104 | 94.9 | 97.9 | 92.1 | 79.8 | 94.6 | 101 | 100 | 80.5 | 94.8 | 100 | 91.7 | 106 | 97.5 | 87.7 | 88.1 |
| COc1ncc(-c2ccc3nccc(-c4ccnnc4)c3c2)cc1N[S+](=O)([O-])c1ccc(F)cc1F | 118 | 115 | 115 | 106 | 101 | 95.6 | 95.3 | 74.8 | 35.8 | 17 | 11.3 | 139 | 111 | 91.1 | 91.4 | 83.3 | 77 | 69.9 | 55.9 | 40 | 17.5 | 8.78 | 131 | 113 | 101 | 97.3 | 89 | 90.3 | 80.5 | 61.3 | 47.5 | 13.6 | 9.07 |
| COC1=CC=C(C=C1)C/2=C/OC3=C(C(=CC(=C3)O)O)C2=O | 113 | 120 | 118 | 77.2 | 124 | 120 | 119 | 123 | 117 | 105 | 74.5 | 108 | 108 | 113 | 65.2 | 120 | 120 | 133 | 121 | 123 | 127 | 123 | 118 | 118 | 119 | 82 | 131 | 133 | 129 | 137 | 133 | 134 | 93.7 |
| CC(C)NC[C@@H](C(=O)N1CCN(c2ncnc3c2[C@H](C)C[C@H]3O)CC1)c1ccc(Cl)cc1 | 118 | 120 | 114 | 109 | 100 | 99.5 | 92.8 | 83 | 67 | 48.2 | 28.1 | 109 | 105 | 111 | 107 | 100 | 85.8 | 71.3 | 65.2 | 52.8 | 44.4 | 33.6 | 112 | 109 | 114 | 115 | 103 | 95.3 | 85.2 | 78.1 | 55.5 | 37.2 | 23.5 |
| COc1cc2ncnc(Nc3cc(Br)c(O)c(Br)c3)c2cc1OC | 98.7 | 103 | 106 | 101 | 112 | 110 | 109 | 107 | 106 | 108 | 96.5 | 92.3 | 104 | 107 | 114 | 109 | 113 | 117 | 118 | 99.7 | 106 | 79.4 | 95.8 | 104 | 108 | 109 | 111 | 114 | 114 | 118 | 105 | 109 | 94.9 |
| COc1ccc(C2CNC(=O)C2)cc1OC1CCCC1 (stereo unspecified) | 88.6 | 100 | 102 | 99 | 109 | 105 | 107 | 108 | 105 | 99 | 102 | 89 | 106 | 91.7 | 99 | 101 | 96.7 | 105 | 103 | 98.4 | 102 | 93 | 84.8 | 97.6 | 89.7 | 103 | 95.6 | 97.2 | 92.4 | 106 | 106 | 109 | 99 |
| C\C1=C(\C=C(\C#N)C(=O)N1)C2=CC=NC=C2 | 104 | 104 | 102 | 102 | 105 | 106 | 107 | 115 | 109 | 109 | 13.8 | 110 | 114 | 112 | 118 | 118 | 107 | 112 | 118 | 112 | 121 | 18.4 | 94.6 | 105 | 103 | 98.9 | 110 | 107 | 109 | 110 | 111 | 108 | 27.9 |
| CN1CCN(c2ccc([N+](=O)[O-])c3no[n+]([O-])c23)CC1 | 84.1 | 85.5 | 87.8 | 93.8 | 99 | 91.5 | 94.2 | 90.6 | 95.7 | 95.2 | 82.9 | 86.1 | 92.4 | 93.1 | 89 | 94.7 | 97.7 | 93.2 | 88.1 | 95.4 | 86.6 | 91.3 | 91.9 | 91.9 | 91.2 | 92.1 | 98.8 | 91.8 | 93.6 | 89 | 90.2 | 91.1 | 77.8 |
| Cc1ccc([S+](=O)([O-])N[C@@H](Cc2ccccc2)C(=O)CCl)cc1 | 95 | 106 | 101 | 101 | 105 | 107 | 105 | 106 | 104 | 94.4 | 46.4 | 90.8 | 92.4 | 95.7 | 104 | 113 | 107 | 88.7 | 105 | 109 | 96.2 | 36 | 93.9 | 92.6 | 97.2 | 102 | 95.1 | 91.3 | 93.2 | 94.7 | 106 | 105 | 36.9 |
| Cc1c(NC(=O)OC[C@@H]2COCCN2)cn2ncnc(Nc3ccc4c(cnn4Cc4cccc(F)c4)c3)c12 | 80 | 83.9 | 91.5 | 90 | 94.8 | 96.5 | 99.8 | 94.3 | 86.8 | 87.8 | 50.6 | 83 | 84.4 | 90.8 | 87.9 | 92.9 | 85.8 | 86 | 92.2 | 76.6 | 81.3 | 48.3 | 83.4 | 84.4 | 88.9 | 97.3 | 100 | 88.1 | 89.2 | 92.9 | 91.3 | 82.8 | 40.4 |
| CC(C)C1=C(O)C=C(O)C(=C1)C/2=N/NC(=O)N2C3=CC4=C(C=C3)[N](C)C=C4 | 119 | 118 | 118 | 117 | 116 | 78.1 | 51.7 | 54.2 | 49 | 47.4 | 45.3 | 119 | 123 | 125 | 112 | 110 | 51 | 41 | 41.3 | 41.8 | 41.6 | 38.6 | 112 | 123 | 127 | 122 | 116 | 48.7 | 45.6 | 42.6 | 44.4 | 41.5 | 39 |
| O=c1[nH]c2ccccc2n1C1CCN(Cc2ccc(-c3nc4cc5nc[nH]c5cc4nc3-c3ccccc3)cc2)CC1 | 109 | 125 | 116 | 125 | 117 | 132 | 115 | 102 | 105 | 109 | 115 | 111 | 102 | 110 | 111 | 115 | 114 | 106 | 85.4 | 104 | 109 | 106 | 121 | 114 | 114 | 121 | 114 | 110 | 105 | 91.1 | 103 | 96 | 107 |
